Assay results taken from US10183014B2, “Ocular formulations for drug-delivery and protection of the anterior segment of the eye” (PanOptica, Inc., priority 2014, dated 2019).
Where two headings read alike, the source gives them in different places.

Experiments:
[1] = Ocular pharmacokinetics of formulations, Example 20-4; format: in vivo, Dutch Belted rabbits; conditions: TRIS 0.60%, glycerol 2%, HPMC 0.08%, VitK3 1 μM, Day 5, 1 hr post dose
Experimental: The study design (Table 18-1) consisted of forty-nine (49) Dutch Belted rabbits, each receiving a 30 μL bilateral topical ocular dose.
Ocular sampling occurred one hour following the first daily dose on Day 5 for all groups. Whole blood samples using K2EDTA as an anticoagulant were collected from all animals on Day 5, 1 hour post dose. The whole blood was placed on ice until samples were spun in a centrifuge to separate the plasma. Aqueous humor, conjunctiva, cornea, central retina, peripheral retina, central choroid, and peripheral choroid samples were collected following necropsy. Samples were then frozen at −70° C. or lower. For all Groups 1-16, plasma, central retina, central choroid, and cornea samples were assayed for PAN-90806.

[2] = Ocular toxicology studies (tolerability and ocular tissue concentrations); format: in vivo, Dutch-Belted rabbits; conditions: for concentration at 29 days: Dutch-Belted, topical, 0.3 %, 0.3% Ophthalmic Gel Drop (with and without benzylalkonium chloride), twice daily
Text: (§1) Retinal function was normal in all test article and vehicle treated groups during full-field electroretinograms performed in rabbits.

ABL1 T315I = ABL1 T315I (Homo sapiens, UniProt P00519, T315I); assay: In vitro inhibition of tyrosine kinases; format: biochemical; conditions: read-out: Mean % Inhibition at 1 μM Compound-I; 1 μM (568.9 ng/mL)
[3] = Particle size distribution by laser diffraction light scattering; format: physicochemical; conditions: API form HCl salt
Experimental: Particle size distribution can be analyzed using laser diffraction light scattering, e.g., with a Horiba LA-950 V2. Generic assumptions are made in setting conditions and the refractive index value. The distributions are volume based. Sample density is adjusted to a generic range of percent transmission on the blue LED light source. A small sample cell (filled with water) can be used rather than the flow through cell, to minimize sample quantity.
Particle size distribution was analyzed using laser diffraction light scattering with a Horiba LA-950 V2. Generic assumptions were made in setting conditions and the refractive index value. The distributions were volume based. Sample density was adjusted to a generic range of percent transmission on the blue LED light source. A small sample cell (filled with water) was used rather than the flow through cell, to minimize sample quantity.

SNF1LK2 = SNF1LK2 (Homo sapiens, UniProt Q9H0K1); assay: In vitro inhibition of tyrosine kinases; format: biochemical; conditions: read-out: Mean % Inhibition at 1 μM Compound-I; 1 μM (568.9 ng/mL)
Sequence of SNF1LK2 (Q9H0K1 whole entry, species assumed): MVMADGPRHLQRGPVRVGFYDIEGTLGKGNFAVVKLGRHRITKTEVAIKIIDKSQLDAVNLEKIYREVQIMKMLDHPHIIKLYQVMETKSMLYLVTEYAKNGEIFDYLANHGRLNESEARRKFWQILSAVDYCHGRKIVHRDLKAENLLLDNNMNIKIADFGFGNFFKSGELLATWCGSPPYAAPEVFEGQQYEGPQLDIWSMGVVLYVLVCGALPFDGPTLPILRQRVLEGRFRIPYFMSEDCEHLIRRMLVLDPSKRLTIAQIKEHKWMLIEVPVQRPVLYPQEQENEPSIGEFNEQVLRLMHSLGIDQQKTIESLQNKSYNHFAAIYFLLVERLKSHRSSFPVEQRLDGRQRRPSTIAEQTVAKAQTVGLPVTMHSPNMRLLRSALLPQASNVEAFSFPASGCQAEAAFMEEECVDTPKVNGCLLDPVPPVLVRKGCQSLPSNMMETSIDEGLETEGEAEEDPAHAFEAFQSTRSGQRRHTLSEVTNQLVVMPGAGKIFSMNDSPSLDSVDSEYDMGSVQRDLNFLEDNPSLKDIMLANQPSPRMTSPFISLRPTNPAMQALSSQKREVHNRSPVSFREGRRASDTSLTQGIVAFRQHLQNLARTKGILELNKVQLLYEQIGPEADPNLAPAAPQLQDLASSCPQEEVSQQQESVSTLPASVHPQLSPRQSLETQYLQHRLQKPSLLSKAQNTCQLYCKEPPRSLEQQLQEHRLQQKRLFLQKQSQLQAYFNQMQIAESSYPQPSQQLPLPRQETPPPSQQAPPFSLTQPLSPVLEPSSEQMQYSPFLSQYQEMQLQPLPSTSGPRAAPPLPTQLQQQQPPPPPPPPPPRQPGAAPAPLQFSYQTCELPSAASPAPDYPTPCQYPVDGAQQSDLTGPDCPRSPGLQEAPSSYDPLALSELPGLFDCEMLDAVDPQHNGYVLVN

FGFR-2 = FGFR-2 (Homo sapiens, UniProt P21802); assay: In vitro inhibition of tyrosine kinases; format: biochemical
Sequence of FGFR-2 (P21802 22-821, species assumed): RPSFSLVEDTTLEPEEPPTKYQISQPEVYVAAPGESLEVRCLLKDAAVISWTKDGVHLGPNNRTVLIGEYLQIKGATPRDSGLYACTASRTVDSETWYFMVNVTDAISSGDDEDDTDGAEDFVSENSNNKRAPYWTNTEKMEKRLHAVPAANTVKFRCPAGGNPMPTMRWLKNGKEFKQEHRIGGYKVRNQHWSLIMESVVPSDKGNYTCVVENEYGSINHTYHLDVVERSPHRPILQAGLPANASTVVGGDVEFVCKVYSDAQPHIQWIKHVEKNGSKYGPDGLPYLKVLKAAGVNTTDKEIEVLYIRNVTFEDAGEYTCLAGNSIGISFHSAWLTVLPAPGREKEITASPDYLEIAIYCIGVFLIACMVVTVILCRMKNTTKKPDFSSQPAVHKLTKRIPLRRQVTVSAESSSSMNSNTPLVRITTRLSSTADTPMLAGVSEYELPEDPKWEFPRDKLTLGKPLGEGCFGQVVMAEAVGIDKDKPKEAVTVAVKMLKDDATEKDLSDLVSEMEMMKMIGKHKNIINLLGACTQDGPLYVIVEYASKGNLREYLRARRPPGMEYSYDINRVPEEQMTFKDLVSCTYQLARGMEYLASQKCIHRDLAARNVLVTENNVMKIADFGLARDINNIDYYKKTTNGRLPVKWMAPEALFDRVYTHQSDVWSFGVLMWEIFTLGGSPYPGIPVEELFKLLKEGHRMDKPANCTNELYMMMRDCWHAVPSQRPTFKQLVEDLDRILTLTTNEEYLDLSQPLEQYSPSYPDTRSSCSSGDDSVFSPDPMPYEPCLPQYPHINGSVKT

SRC N1 = SRC N1 (Homo sapiens, UniProt P12931); assay: In vitro inhibition of tyrosine kinases; format: biochemical; conditions: read-out: Mean % Inhibition at 1 μM Compound-I; 1 μM (568.9 ng/mL)
Sequence of SRC N1 (P12931 1-542 isoform P12931-2): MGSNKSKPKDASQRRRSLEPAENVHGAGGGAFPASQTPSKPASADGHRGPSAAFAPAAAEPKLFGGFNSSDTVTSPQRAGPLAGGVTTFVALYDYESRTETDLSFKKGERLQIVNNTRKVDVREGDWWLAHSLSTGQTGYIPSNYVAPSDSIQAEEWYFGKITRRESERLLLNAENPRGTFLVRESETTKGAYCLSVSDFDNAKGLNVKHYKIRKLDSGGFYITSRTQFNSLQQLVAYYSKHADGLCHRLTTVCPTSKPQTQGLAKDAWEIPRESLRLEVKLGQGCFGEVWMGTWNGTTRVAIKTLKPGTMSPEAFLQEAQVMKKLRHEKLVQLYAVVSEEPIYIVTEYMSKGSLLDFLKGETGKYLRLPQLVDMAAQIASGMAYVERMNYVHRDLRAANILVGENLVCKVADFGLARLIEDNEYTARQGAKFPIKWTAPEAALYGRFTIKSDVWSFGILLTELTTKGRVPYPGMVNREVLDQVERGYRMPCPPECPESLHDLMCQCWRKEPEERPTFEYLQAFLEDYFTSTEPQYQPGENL

[4] = Ocular toxicology studies; format: in vivo, beagle dogs
Text: as §1

[5] = discomfort, inflammation, corneal thinning
[6] = ophthalmic gel drops, topical ocular dosing
[7] = excipient HPMC, roller speed low, media size 3 mm, particles under storage 21 days, RT
[8] = excipient Pluronic F-127, roller speed high, media size 0.8 mm
[9] = excipient Tyloxapol, milling not given
[10] = excipient Tyloxapol, roller speed high, media size 0.8 mm, particles under storage 6 days, 40° C.
[11] = excipient Tyloxapol, roller speed low, media size 3 mm

## Cl.NC(=O)c1c(OCc2c(F)cc(Br)cc2F)nsc1NC(=O)NCCCCN1CCCC1 [Compound-I, 3-[(4-bromo-2,6-difluorophenyl)methoxy]-5-[[[[4-(1-pyrrolidinyl)butyl]amino]carbonyl]amino]-4-isothiazolecarboxamide hydrochloride]
[1]; Group 13: 4 mg/mL Salt suspension, PSD Native (≈50) μm/XXL, HEC 0.2%, pH 6, QD, read-out: Central Choroid concentration
  concentration at 1 h: 0.234 µM
[1]; Group 13: 4 mg/mL Salt suspension, PSD Native (≈50) μm/XXL, HEC 0.2%, pH 6, QD, read-out: Central Retina concentration
  concentration at 1 h: 0.0677 µM
[1]; Group 14: 4 mg/mL Salt suspension, PSD 3 μm/Large, HEC 0.2%, pH 6, QD
  Plasma concentration: 4.99 nM
[1]; Group 14: 4 mg/mL Salt suspension, PSD 3 μm/Large, HEC 0.2%, pH 6, QD, read-out: Central Choroid concentration
  concentration at 1 h: 0.241 µM
[1]; Group 14: 4 mg/mL Salt suspension, PSD 3 μm/Large, HEC 0.2%, pH 6, QD, read-out: Central Retina concentration
  concentration at 1 h: 0.0992 µM
[1]; Group 15: 4 mg/mL Salt suspension, PSD 30 μm/XL, HEC 0.3%, pH 7, QD
  Plasma concentration: 3.25 nM
[1]; Group 15: 4 mg/mL Salt suspension, PSD 30 μm/XL, HEC 0.3%, pH 7, QD, read-out: Central Choroid concentration
  concentration at 1 h: 0.200 µM
[1]; Group 15: 4 mg/mL Salt suspension, PSD 30 μm/XL, HEC 0.3%, pH 7, QD, read-out: Central Retina concentration
  concentration at 1 h: 0.0532 µM
[2]; 0.3% w/v Tris-based suspension twice daily for 30 days
  Microscopic evaluation of eyes: considered normal
[2]; 0.6% cyclodextrin-based solution, 30 days topical ocular dosing
  Findings attributed to test-article or vehicle: no untoward findings
[2]; rabbit, central choroid, read-out: Central Choroid [Compound I]
  concentration at 29 days: 0.34 to 0.496 µM
[2]; rabbit, cornea, read-out: Cornea [Compound I]
  concentration at 29 days: 236 to 260 µM
[2]; all test article groups
  Retinal function (full-field electroretinograms): normal
[2]; [5]
  Cornea concentration above which ocular side effects were more consistently observed: exceeded 100 μM
[2]; [6]
  Corneal tissue exposure: ≥ 100 µM
[2]; rabbit, in vivo
  Corneal concentration, Gel Drop compared to Tris-based suspensions: fifty-fold to hundred-fold higher
  Corneal concentration, Gel Drop compared to cyclodextrin based solution: five-fold to fifteen-fold higher
  Ocular tolerability (clinical ophthalmic examinations): well tolerated
[2]; suspension-based and cyclodextrin formulations
  Reduction of corneal exposure versus Gel Drop: 10-100 ×
[2]; topical ocular dosing 1 to 30 days, hydrochloride
  Reduction in corneal concentrations, cyclodextrin-based solution versus equimolar Gel Drop: ~10 fold
ABL1 T315I
  inhibition at 1 µM: 101%
[3]; [7]
  PSD (Particle Size Distribution) Mean: ~450 nm
  PSD (Particle Size Distribution) Median: ~170 nm
[3]; [8]
  PSD (Particle Size Distribution) Mean: ~100 nm
  PSD (Particle Size Distribution) Median: ~100 nm
[3]; [9]
  PSD (Particle Size Distribution) Mean: ~110 nm
  PSD (Particle Size Distribution) Median: ~110 nm
[3]; [10]
  PSD (Particle Size Distribution) Mean: ~120 nm
  PSD (Particle Size Distribution) Median: ~110 nm
[3]; [11]
  PSD (Particle Size Distribution) Mean: ~8500 nm
  PSD (Particle Size Distribution) Median: ~6700 nm
SNF1LK2
  inhibition at 1 µM: 82%
FGFR-2; read-out: Mean % Inhibition at 300 nM Compound-I, 300 nM (170.67 ng/mL)
  inhibition at 0.3 µM: 103%
FGFR-2; read-out: Mean % Inhibition at 1 μM Compound-I, 1 μM (568.9 ng/mL)
  inhibition at 1 µM: 99%
SRC N1
  inhibition at 1 µM: 83%
[4]; [5]
  Cornea concentration above which ocular side effects were more consistently observed: exceeded 100 μM
[4]; [6]
  Corneal tissue exposure: ≥ 100 µM
